Assay results taken from PubChem BioAssay AID248 (DTP/NCI, 2004).
Values joined by “and” are separate entries in the source; they are usually repeats but may differ in a detail not shown here. Equal values may be shown once. Toxic doses and inconclusive results are not listed.

Tested on: L1210 leukemia ip in BDF1 mice, survival T/C
Experiment: NCI In Vivo Anticancer Drug Screen. Data for tumor model L1210 Leukemia (intraperitoneal) in B6D2F1 (BDF1) mice
Conditions: endpoint: mean survival time, higher = longer survival
Method in brief: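 Tumor was transplanted into mice, which were then dosed with test compound or vehicle alone. Survival was recorded for each group, and the treated figure was expressed relative to the control figure.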

[1] = dose: 100.0 mg/kg/injection, schedule: Q04DX003 (ip), vehicle: Klucel (hydroxypropylcellulose) (HPC)
[2] = dose: 200.0 mg/kg/injection, schedule: Q04DX003 (ip), vehicle: Klucel (hydroxypropylcellulose) (HPC)
[3] = dose: 200.0 mg/kg/injection, schedule: Q01DX001 (ip), vehicle: carboxymethylcellulose (CMC)
[4] = dose: 400.0 mg/kg/injection, schedule: Q01DX001 (ip), vehicle: carboxymethylcellulose (CMC)
[5] = dose: 50.0 mg/kg/injection, schedule: Q01DX001 (ip), vehicle: carboxymethylcellulose (CMC)
[6] = dose: 100.0 mg/kg/injection, schedule: Q01DX001 (ip), vehicle: carboxymethylcellulose (CMC)
[7] = dose: 100.0 mg/kg/injection, schedule: Q01DX009 (ip), vehicle: saline
[8] = dose: 200.0 mg/kg/injection, schedule: Q01DX009 (ip), vehicle: saline
[9] = dose: 100.0 mg/kg/injection, schedule: Q04DX003 (ip), vehicle: saline
[10] = dose: 100.0 mg/kg/injection, schedule: Q04DX003 (ip), vehicle: saline with Tween-80
[11] = dose: 100.0 mg/kg/injection, schedule: Q01DX001 (ip), vehicle: saline
[12] = dose: 200.0 mg/kg/injection, schedule: Q01DX001 (ip), vehicle: saline
[13] = dose: 400.0 mg/kg/injection, schedule: Q01DX001 (ip), vehicle: saline

Q: What does the source list for `COc1ccc(CCN=C(N)CCl)cc1`?
A: T/C (dose: 100.0 mg/kg/injection, schedule: Q04DX002 (ip), vehicle: saline): 95 % of control; T/C (dose: 200.0 mg/kg/injection, schedule: Q04DX002 (ip), vehicle: saline): 106 % of control

Q: For `CCCC[N+](C)(CC(C)C)C1CCCCCCC1` (centres undefined), which T/C (dose: 75.0 mg/kg/injection, schedule: Q01DX001 (ip), vehicle: carboxymethylcellulose (CMC)) is on record?
A: 104 % of control

Q: What about the T/C (dose: 75.0 mg/kg/injection, schedule: Q01DX001 (ip), vehicle: saline) of the same compound?
A: 96 % of control

Q: What about the T/C (dose: 150.0 mg/kg/injection, schedule: Q01DX001 (ip), vehicle: saline) of the same compound?
A: 93 % of control

Q: How did the T/C (dose: 50.0 mg/kg/injection, schedule: Q01DX009 (ip), vehicle: Klucel (hydroxypropylcellulose) (HPC)) turn out when `CCN(CC)CCCC#CCN1CCCC1` was run?
A: 92 % of control

Q: What about the T/C (dose: 100.0 mg/kg/injection, schedule: Q01DX009 (ip), vehicle: Klucel (hydroxypropylcellulose) (HPC)) of the same compound?
A: 100 % of control

Q: And the T/C [1]?
A: 91 % of control

Q: And the T/C [2]?
A: 100 % of control

Q: For `O=c1[nH]nc(Br)c(=O)n1C(c1ccccc1)c1ccccc1`, which T/C (dose: 22.0 mg/kg/injection, schedule: Q01DX015 (ip), vehicle: carboxymethylcellulose (CMC)) is on record?
A: 89 % of control

Q: And the T/C (dose: 33.0 mg/kg/injection, schedule: Q01DX015 (ip), vehicle: carboxymethylcellulose (CMC))?
A: 97 % of control

Q: And the T/C (dose: 44.0 mg/kg/injection, schedule: Q01DX001 (ip), vehicle: carboxymethylcellulose (CMC))?
A: 97 % of control and 101 % of control

Q: And the T/C (dose: 50.0 mg/kg/injection, schedule: Q01DX015 (ip), vehicle: carboxymethylcellulose (CMC))?
A: 95 % of control

Q: What about the T/C (dose: 66.0 mg/kg/injection, schedule: Q01DX001 (ip), vehicle: carboxymethylcellulose (CMC)) of the same compound?
A: 94 % of control and 98 % of control

Q: And the T/C (dose: 75.0 mg/kg/injection, schedule: Q01DX015 (ip), vehicle: carboxymethylcellulose (CMC))?
A: 97 % of control

Q: What about the T/C (dose: 150.0 mg/kg/injection, schedule: Q01DX001 (ip), vehicle: carboxymethylcellulose (CMC)) of the same compound?
A: 95 % of control and 96 % of control

Q: What about the T/C [3] of the same compound?
A: 154 % of control

Q: What about the T/C [4] of the same compound?
A: 96 % of control

Q: `O=C(O)CCCOc1ccc(Cl)cc1` was tested. Which T/C (dose: 100.0 mg/kg/injection, schedule: Q04DX002 (ip), vehicle: Klucel (hydroxypropylcellulose) (HPC)) did it give?
A: 96 % of control

Q: And the T/C (dose: 200.0 mg/kg/injection, schedule: Q04DX002 (ip), vehicle: Klucel (hydroxypropylcellulose) (HPC))?
A: 101 % of control

Q: What about the T/C (dose: 400.0 mg/kg/injection, schedule: Q04DX002 (ip), vehicle: Klucel (hydroxypropylcellulose) (HPC)) of the same compound?
A: 104 % of control

Q: With `CCCO[Si](C)(C)CCl` as the compound, how does the T/C [5] read?
A: 92 % of control

Q: What about the T/C [6] of the same compound?
A: 92 % of control

Q: What about the T/C [3] of the same compound?
A: 92 % of control

Q: And the T/C [4]?
A: 98 % of control

Q: `CCOC(CNC(=O)c1ccc(S(=O)(=O)F)cc1)OCC` was tested. Which T/C (dose: 100.0 mg/kg/injection, schedule: Q04DX003 (ip), vehicle: alcohol) did it give?
A: 107 % of control

Q: What about the T/C (dose: 200.0 mg/kg/injection, schedule: Q04DX003 (ip), vehicle: alcohol) of the same compound?
A: 101 % of control

Q: And the T/C (dose: 400.0 mg/kg/injection, schedule: Q04DX003 (ip), vehicle: alcohol)?
A: 98 % of control

Q: `CC1OCC(C)(CO)CO1` (centres undefined) was tested. Which T/C (dose: 50.0 mg/kg/injection, schedule: Q01DX009 (ip), vehicle: saline) did it give?
A: 102 % of control

Q: What about the T/C [7] of the same compound?
A: 101 % of control

Q: And the T/C (dose: 100.0 mg/kg/injection, schedule: Q04DX003 (ip), vehicle: acetone)?
A: 106 % of control

Q: What about the T/C [8] of the same compound?
A: 98 % of control

Q: What about the T/C (dose: 200.0 mg/kg/injection, schedule: Q04DX003 (ip), vehicle: acetone) of the same compound?
A: 122 % of control

Q: And the T/C (dose: 400.0 mg/kg/injection, schedule: Q04DX003 (ip), vehicle: acetone)?
A: 111 % of control

Q: For `CC(CC(O)c1ccccc1)c1ccccc1` (centres undefined), which T/C [7] is on record?
A: 102 % of control

Q: And the T/C [1]?
A: 98 % of control

Q: And the T/C [8]?
A: 97 % of control

Q: What about the T/C [2] of the same compound?
A: 104 % of control

Q: What about the T/C (dose: 400.0 mg/kg/injection, schedule: Q01DX009 (ip), vehicle: saline) of the same compound?
A: 98 % of control

Q: What about the T/C (dose: 400.0 mg/kg/injection, schedule: Q04DX003 (ip), vehicle: Klucel (hydroxypropylcellulose) (HPC)) of the same compound?
A: 104 % of control

Q: Which results are given for `CC(C)(C)C(C)(C)O`?
A: T/C (dose: 75.0 mg/kg/injection, schedule: Q01DX001 (ip), vehicle: saline with Tween-80): 100 % of control; T/C (dose: 150.0 mg/kg/injection, schedule: Q01DX001 (ip), vehicle: saline with Tween-80): 97 % of control; T/C (dose: 300.0 mg/kg/injection, schedule: Q01DX001 (ip), vehicle: saline with Tween-80): 92 % of control

Q: What does the source list for `CC(=O)c1ccc(C)c([N+](=O)[O-])c1`?
A: T/C [5]: 98 % of control; T/C [6]: 91 % of control; T/C [3]: 107 % of control; T/C [4]: 91 % of control

Q: For `CN(C)/N=N/c1ccn[nH]1`, which T/C (dose: 50.0 mg/kg/injection, schedule: Q01DX005 (ip), vehicle: saline) is on record?
A: 105 % of control

Q: `CCCCNC(=O)C1C2CC3OC(=O)C1C3C2` (centres undefined) was tested. Which T/C (dose: 12.5 mg/kg/injection, schedule: Q04DX003 (ip), vehicle: saline) did it give?
A: 89 % of control

Q: What about the T/C (dose: 25.0 mg/kg/injection, schedule: Q04DX003 (ip), vehicle: saline) of the same compound?
A: 95 % of control

Q: And the T/C (dose: 50.0 mg/kg/injection, schedule: Q04DX003 (ip), vehicle: saline)?
A: 100 % of control

Q: And the T/C [9]?
A: 95 % of control

Q: What about the T/C (dose: 200.0 mg/kg/injection, schedule: Q04DX003 (ip), vehicle: saline) of the same compound?
A: 98 % of control

Q: And the T/C (dose: 400.0 mg/kg/injection, schedule: Q04DX003 (ip), vehicle: saline)?
A: 101 % of control

Q: Which results are given for `CCCCN(CCO)C(C#CC(C)(C)O)C(C)C` (centres undefined)?
A: T/C [10]: 95 % of control; T/C (dose: 200.0 mg/kg/injection, schedule: Q04DX003 (ip), vehicle: saline with Tween-80): 101 % of control

Q: Which results are given for `O=C(O)CSc1cc(Cl)c(Cl)cc1Cl`?
A: T/C (dose: 87.5 mg/kg/injection, schedule: Q04DX003 (ip), vehicle: other): 100 % of control; T/C (dose: 175.0 mg/kg/injection, schedule: Q04DX003 (ip), vehicle: other): 110 % of control

Q: Which T/C [11] does the source give for `CC(C)(C)C1CCCCC1O` (centres undefined) here?
A: 92 % of control

Q: And the T/C [12]?
A: 97 % of control

Q: And the T/C [13]?
A: 92 % of control

Q: How did the T/C (dose: 75.0 mg/kg/injection, schedule: Q01DX001 (ip), vehicle: acetone) turn out when `CC(=O)OCC1CC2CC(O)C1C2` (centres undefined) was run?
A: 102 % of control

Q: What does the source list for `CCCCNC(=NC)c1ccc(NC(=O)Nc2ccc(NC(=O)Nc3ccc(C(=NC)NCCCC)cc3)cc2)cc1`?
A: T/C (dose: 2.0 mg/kg/injection, schedule: Q01DX Z (ip), vehicle: methylcellulose (MC)): 103 % of control; T/C (dose: 3.9 mg/kg/injection, schedule: Q01DX Z (ip), vehicle: methylcellulose (MC)): 96 % of control

Q: `CC(C)N(Cl)S(C)(=O)=O` was tested. Which T/C [9] did it give?
A: 89 % of control

Q: How did the T/C [11] turn out when `NC1CCS(=O)(=O)C1` (centres undefined) was run?
A: 95 % of control

Q: What about the T/C [12] of the same compound?
A: 98 % of control

Q: What about the T/C [13] of the same compound?
A: 101 % of control

Q: With `N=C(N)SC1c2cc(Cl)ccc2-c2c(Cl)cc(Cl)cc21` (centres undefined) as the compound, how does the T/C [6] read?
A: 94 % of control

Q: What about the T/C [3] of the same compound?
A: 92 % of control

Q: Which results are given for `Cc1coc2ccccc2c1=O`?
A: T/C (dose: 50.0 mg/kg/injection, schedule: Q04DX002 (ip), vehicle: gum acacia): 114 % of control; T/C (dose: 100.0 mg/kg/injection, schedule: Q04DX002 (ip), vehicle: gum acacia): 117 % of control; T/C (dose: 200.0 mg/kg/injection, schedule: Q04DX002 (ip), vehicle: gum acacia): 107 % of control

Q: With `BrCC1CCCO1` (centres undefined) as the compound, how does the T/C (dose: 25.0 mg/kg/injection, schedule: Q01DX009 (ip), vehicle: saline with Tween-80) read?
A: 106 % of control

Q: What about the T/C (dose: 25.0 mg/kg/injection, schedule: Q04DX003 (ip), vehicle: saline with Tween-80) of the same compound?
A: 102 % of control

Q: What about the T/C (dose: 50.0 mg/kg/injection, schedule: Q01DX009 (ip), vehicle: saline with Tween-80) of the same compound?
A: 90 % of control

Q: And the T/C (dose: 50.0 mg/kg/injection, schedule: Q04DX003 (ip), vehicle: saline with Tween-80)?
A: 101 % of control

Q: What about the T/C (dose: 100.0 mg/kg/injection, schedule: Q01DX009 (ip), vehicle: saline with Tween-80) of the same compound?
A: 89 % of control

Q: What about the T/C [10] of the same compound?
A: 101 % of control

Q: With `CC(CO)(CO)N=Cc1cc(Cl)cc(Cl)c1O` as the compound, how does the T/C [5] read?
A: 107 % of control

Q: What about the T/C [6] of the same compound?
A: 97 % of control

Q: And the T/C [3]?
A: 107 % of control

Q: And the T/C [4]?
A: 97 % of control

Q: Which T/C [7] does the source give for `CNc1ncnc2c1ncn2C1CC(CO)C(O)C1O` (centres undefined) here?
A: 98 % of control
